Results as given in ChEMBL document CHEMBL1132765, “Synthesis and antibacterial activity of new carbapenems containing isoxazole moiety” (2000).
Converted amounts (≈) assume the structure as drawn.

Columns and labels:
[1] = tested on: Enterobacter cloacae; experiment: In vitro antibacterial activity against Enterobacter cloacae 1321E; format: functional
[2] = tested on: Escherichia coli; experiment: In vitro antibacterial activity against Escherichia coli 078; format: functional
[3] = tested on: Escherichia coli; experiment: In vitro antibacterial activity against Escherichia coli 1507E; format: functional
[4] = tested on: Klebsiella aerogenes; experiment: In vitro antibacterial activity against Klebsiella aerogenes 1522E; format: functional
[5] = tested on: Pseudomonas aeruginosa; experiment: In vitro antibacterial activity against Pseudomonas aeruginosa 1592E; format: functional
[6] = tested on: Pseudomonas aeruginosa; experiment: In vitro antibacterial activity against Pseudomonas aeruginosa 1771M; format: functional
[7] = tested on: Pseudomonas aeruginosa; experiment: In vitro antibacterial activity against Pseudomonas aeruginosa 9027; format: functional
[8] = tested on: Salmonella typhimurium; experiment: In vitro antibacterial activity against Salmonella Typhimurium; format: functional, Salmonella enterica subsp. enterica serovar Typhimurium
[9] = tested on: Staphylococcus aureus; experiment: In vitro antibacterial activity against Staphylococcus aureus 285; format: functional
[10] = tested on: Staphylococcus aureus; experiment: In vitro antibacterial activity against Staphylococcus aureus 503; format: functional
[11] = tested on: Staphylococcus aureus; experiment: In vitro antibacterial activity against Staphylococcus aureus SG511; format: functional
[12] = tested on: Streptococcus pyogenes; experiment: In vitro antibacterial activity against Streptococcus pyogenes 308A; format: functional
[13] = molecular target: T1, Dipeptidase 1 (Sus scrofa) (UniProt P22412); experiment: Relative t1/2 hydrolysis to meropenem by partially purified porcine renal DHP-1; format: functional
T1 sequence (whole entry): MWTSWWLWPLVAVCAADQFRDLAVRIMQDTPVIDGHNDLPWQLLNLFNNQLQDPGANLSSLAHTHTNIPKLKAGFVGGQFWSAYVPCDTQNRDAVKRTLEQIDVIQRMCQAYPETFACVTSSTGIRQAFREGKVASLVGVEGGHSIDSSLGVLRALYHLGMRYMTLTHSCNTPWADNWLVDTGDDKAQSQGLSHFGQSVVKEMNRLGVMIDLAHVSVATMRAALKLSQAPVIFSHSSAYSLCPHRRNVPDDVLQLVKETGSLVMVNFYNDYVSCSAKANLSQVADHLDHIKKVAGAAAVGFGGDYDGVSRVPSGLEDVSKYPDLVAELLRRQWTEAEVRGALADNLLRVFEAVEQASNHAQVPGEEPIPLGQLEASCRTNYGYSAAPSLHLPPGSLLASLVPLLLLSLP

[14] = Enterobacter cloacae, read-out: MIC
[15] = Escherichia coli, read-out: MIC
[16] = Klebsiella aerogenes, read-out: MIC
[17] = Pseudomonas aeruginosa, read-out: MIC
[18] = Salmonella enterica, read-out: MIC
[19] = Staphylococcus aureus, read-out: MIC
[20] = Streptococcus pyogenes, read-out: MIC

Structure (SMILES) | Relative t1/2 [13] | MIC [1, 14] | MIC [2, 15] | MIC [3, 15] | MIC [4, 16] | MIC [5, 17] | MIC [6, 17] | MIC [7, 17] | MIC [8, 18] | MIC [9, 19] | MIC [10, 19] | MIC [11, 19] | MIC [12, 20] | also measured
C[C@@H](O)[C@H]1C(=O)N2C(C(=O)O)=C(S[C@@H]3CN[C@H](C4CC(CO)=NO4)C3)[C@H](C)[C@H]12 (stereo in doubt; form 2) [listing 1 of 2 here] | – | – | – | – | – | – | – | – | – | – | – | – | – | MIC [1]: 0.025 µg/mL (≈ 0.0608 µM); MIC [2]: 0.025 µg/mL (≈ 0.0608 µM); MIC [3]: 0.025 µg/mL (≈ 0.0608 µM); MIC [4]: 0.049 µg/mL (≈ 0.119 µM); MIC [5]: 0.391 µg/mL (≈ 0.95 µM); MIC [6]: 0.195 µg/mL (≈ 0.474 µM); MIC [7]: 0.391 µg/mL (≈ 0.95 µM); MIC [8]: 0.049 µg/mL (≈ 0.119 µM); MIC [9]: 0.098 µg/mL (≈ 0.238 µM); MIC [10]: 0.049 µg/mL (≈ 0.119 µM); MIC [11]: 0.098 µg/mL (≈ 0.238 µM); MIC [12]: 0.013 µg/mL (≈ 0.0316 µM)
C[C@@H](O)[C@H]1C(=O)N2C(C(=O)O)=C(S[C@@H]3CN[C@H](C4CC(CO)=NO4)C3)[C@H](C)[C@H]12 (stereo in doubt; form 2) [listing 2 of 2 here] | 0.78 | – | – | – | – | – | – | – | – | – | – | – | – | –
C[C@@H](O)[C@H]1C(=O)N2C(C(=O)O)=C(S[C@@H]3CN[C@H](C4CCN(C)O4)C3)[C@H](C)[C@H]12 (some centres undefined) | 1.27 | 0.025 µg/mL (≈ 0.0629 µM) | 0.098 µg/mL (≈ 0.247 µM) | 0.049 µg/mL (≈ 0.123 µM) | 0.098 µg/mL (≈ 0.247 µM) | 0.391 µg/mL (≈ 0.984 µM) | 0.195 µg/mL (≈ 0.491 µM) | 0.391 µg/mL (≈ 0.984 µM) | 0.098 µg/mL (≈ 0.247 µM) | 0.098 µg/mL (≈ 0.247 µM) | 0.049 µg/mL (≈ 0.123 µM) | 0.098 µg/mL (≈ 0.247 µM) | 0.007 µg/mL (≈ 0.0176 µM) | –
C[C@@H](O)[C@H]1C(=O)N2C(C(=O)O)=C(S[C@@H]3CN[C@H](C(=O)N(C)C)C3)[C@H](C)[C@H]12 [MEROPENEM] | 1 | 0.025 µg/mL (≈ 0.0652 µM) | 0.025 µg/mL (≈ 0.0652 µM) | 0.025 µg/mL (≈ 0.0652 µM) | 0.049 µg/mL (≈ 0.128 µM) | 0.195 µg/mL (≈ 0.509 µM) | 0.049 µg/mL (≈ 0.128 µM) | 0.195 µg/mL (≈ 0.509 µM) | 0.049 µg/mL (≈ 0.128 µM) | 0.195 µg/mL (≈ 0.509 µM) | 0.098 µg/mL (≈ 0.256 µM) | 0.195 µg/mL (≈ 0.509 µM) | 0.013 µg/mL (≈ 0.0339 µM) | –
C[C@@H](O)[C@H]1C(=O)N2C(C(=O)O)=C(S[C@@H]3CN[C@H](C4CC(CO)=NO4)C3)[C@H](C)[C@H]12 (stereo in doubt; form 1) [listing 1 of 2 here] | 1.09 | – | – | – | – | – | – | – | – | – | – | – | – | –
CCOC(=O)C1=NOC([C@@H]2C[C@H](SC3=C(C(=O)O)N4C(=O)[C@H]([C@@H](C)O)[C@H]4[C@H]3C)CN2)C1 (some centres undefined) | 0.94 | 0.025 µg/mL (≈ 0.0551 µM) | 0.013 µg/mL (≈ 0.0287 µM) | 0.013 µg/mL (≈ 0.0287 µM) | 0.049 µg/mL (≈ 0.108 µM) | 0.781 µg/mL (≈ 1.72 µM) | 0.391 µg/mL (≈ 0.862 µM) | 0.781 µg/mL (≈ 1.72 µM) | 0.049 µg/mL (≈ 0.108 µM) | 0.391 µg/mL (≈ 0.862 µM) | 0.098 µg/mL (≈ 0.216 µM) | 0.195 µg/mL (≈ 0.43 µM) | 0.025 µg/mL (≈ 0.0551 µM) | –
C[C@@H](O)[C@H]1C(=O)N2C(C(=O)O)=C(S[C@@H]3CN[C@H](C4CC(CO)=NO4)C3)[C@H](C)[C@H]12 (stereo in doubt; form 1) [listing 2 of 2 here] | – | 0.049 µg/mL (≈ 0.119 µM) | 0.049 µg/mL (≈ 0.119 µM) | 0.049 µg/mL (≈ 0.119 µM) | 0.098 µg/mL (≈ 0.238 µM) | 0.391 µg/mL (≈ 0.95 µM) | 0.098 µg/mL (≈ 0.238 µM) | 0.391 µg/mL (≈ 0.95 µM) | 0.098 µg/mL (≈ 0.238 µM) | 0.098 µg/mL (≈ 0.238 µM) | 0.049 µg/mL (≈ 0.119 µM) | 0.098 µg/mL (≈ 0.238 µM) | 0.013 µg/mL (≈ 0.0316 µM) | –
C[C@@H](O)[C@H]1C(=O)N2C(C(=O)O)=C(S[C@@H]3CN[C@H](C4CC[N+](C)(C)O4)C3)[C@H](C)[C@H]12.[Cl-] (some centres undefined) | 1.5 | 0.098 µg/mL | 0.195 µg/mL | 0.098 µg/mL | 0.195 µg/mL | 0.391 µg/mL | 0.195 µg/mL | 0.391 µg/mL | 0.195 µg/mL | 0.195 µg/mL | 0.049 µg/mL | 0.098 µg/mL | 0.013 µg/mL | –
C[C@@H](O)[C@H]1C(=O)N2C(C(=O)O)=C(S[C@@H]3CN[C@H](c4cc(CO)on4)C3)[C@H](C)[C@H]12 | 0.8 | 0.025 µg/mL (≈ 0.0611 µM) | 0.025 µg/mL (≈ 0.0611 µM) | 0.025 µg/mL (≈ 0.0611 µM) | 0.049 µg/mL (≈ 0.12 µM) | 1.56 µg/mL (≈ 3.82 µM) | 0.391 µg/mL (≈ 0.955 µM) | – | 0.049 µg/mL (≈ 0.12 µM) | 0.098 µg/mL (≈ 0.239 µM) | 0.049 µg/mL (≈ 0.12 µM) | 0.098 µg/mL (≈ 0.239 µM) | 0.013 µg/mL (≈ 0.0317 µM) | MIC [7]: 1.56 µg/mL (≈ 3.82 µM)
C[C@@H](O)[C@H]1C(=O)N2C(C(=O)O)=C(S[C@@H]3CN[C@H](C4CC[N+](C)(CC(N)=O)O4)C3)[C@H](C)[C@H]12.[Cl-] (some centres undefined) | 1.66 | 0.049 µg/mL | 0.098 µg/mL | 0.049 µg/mL | 0.195 µg/mL | 0.391 µg/mL | 0.195 µg/mL | 0.195 µg/mL | 0.195 µg/mL | 0.098 µg/mL | 0.025 µg/mL | 0.049 µg/mL | 0.007 µg/mL | –
